Measured values as given in patent US10646488B2 (Araxes Pharma LLC, priority 2016, dated 2020).

Target: T1, KRAS G12C 1-169, his-tagged protein, GDP-loaded (Homo sapiens, UniProt P01116, G12C)
T1 construct: KRAS G12C 1-169, his-tagged protein, GDP-loaded
Assay: Covalent binding (% modification) to KRAS G12C by mass spectrometry; further: test concentration or dose not given here

[1] = covalent binding to KRAS G12C after a three minute incubation period
[2] = covalent binding to KRAS G12C after a ten minute incubation period

Structure (SMILES)	Binding % [1]	also measured
C=CC(=O)N1C[C@H](C)N(c2nc(N3CC(NC)C3)nc3c(F)c(-c4c(C)ccc5cn[nH]c45)c(Cl)cc23)C[C@H]1C (atropisomer, axis not shown) [Compound 108, 1-((2R,5S)-4-(6-chloro-8-fluoro-7-((R)-6-methyl-1H-indazol-7-yl)-2-(3-(methylamino)azetidin-1-yl)quinazolin-4-yl)-2,5-dimethyl-piperazin-1-yl) prop-2-en-1-one]	+++ (+++ indicates binding activity greater than 90%)	–
C=CC(=O)N1C[C@H](C)N(c2nc(OCCCN(C)C)nc3c(F)c(-c4c(C)ccc5cn[nH]c45)c(Cl)cc23)C[C@H]1C [Compound 191, 1-((2R,5S)-4-(6-chloro-2-(3-(dimethylamino)propoxy)-8-fluoro-7-(6-methyl-1H-indazol-7-yl)quinazolin-4-yl)-2,5-dimethyl-piperazin-1-yl) prop-2-en-1-one]	+++ (+++ indicates binding activity greater than 90%)	–
C=CC(=O)N1CCN(c2nc(OCCN3CC(F)(F)C3)nc3c(F)c(-c4c(O)cccc4F)c(Cl)cc23)C[C@H]1C [Compound 57, 1-((2R)-4-(6-chloro-2-(2-(3,3-difluoroazetidin-1-yl)ethoxy)-8-fluoro-7-(2-fluoro-6-hydroxyphenyl)quinazolin-4-yl)-2-methyl-piperazin-1-yl) prop-2-en-1-one]	–	Binding % [2]: +++ (+++ indicates binding activity greater than 90%)
C=CC(=O)N1C[C@H](C)N(c2nc(OCCN3CC(F)(F)C3)nc3c(F)c(-c4c(O)cccc4F)c(Cl)cc23)C[C@H]1C (atropisomer, axis not shown) [Compound 84, 1-((2R,5S)-4-((S)-6-chloro-2-(2-(3,3-difluoroazetidin-1-yl)ethoxy)-8-fluoro-7-(2-fluoro-6-hydroxyphenyl)quinazolin-4-yl)-2,5-dimethyl-piperazin-1-yl) prop-2-en-1-one]	–	Binding % [2]: +++ (+++ indicates binding activity greater than 90%)
C=CC(=O)N1C[C@H](C)N(c2nc(OCCN3CC(F)(F)C3)nc3c(F)c(-c4cc(O)cc5ccccc45)c(Cl)cc23)C[C@H]1C [Compound 169, 1-((2R,5S)-4-(6-chloro-2-(2-(3,3-difluoroazetidin-1-yl)ethoxy)-8-fluoro-7-(3-hydroxynaphthalen-1-yl)quinazolin-4-yl)-2,5-dimethyl-piperazin-1-yl) prop-2-en-1-one]	++ (++ indicates binding activity from 50 to 90%)	–
C=CC(=O)N1CCN(c2nc(OCCN(CC)CC)nc3c(F)c(-c4c(O)cccc4F)c(Cl)cc23)[C@@H](C)C1 [Compound 9, 1-((3S)-4-(6-chloro-2-(2-(diethylamino)ethoxy)-8-fluoro-7-(2-fluoro-6-hydroxyphenyl)quinazolin-4-yl)-3-methylpiperazin-1-yl)prop-2-en-1-one]	–	Binding % [2]: ++ (++ indicates binding activity from 50 to 90%)
C=CC(=O)N1C[C@H](C)N(c2nc(OCCN3CC(F)(F)C3)nc3c(F)c(-c4c(C)ccc5cn[nH]c45)c(Cl)cc23)C[C@H]1C (atropisomer, axis not shown) [Compound 127, 1-((2R,5S)-4-(6-chloro-2-(2-(3,3-difluoroazetidin-1-yl)ethoxy)-8-fluoro-7-((R)-6-methyl-1H-indazol-7-yl)quinazolin-4-yl)-2,5-dimethyl-piperazin-1-yl) prop-2-en-1-one]	+++ (+++ indicates binding activity greater than 90%)	–
C=CC(=O)N1C[C@H](C)N(c2nc(N3CC4(CCOCC4)C3)nc3c(F)c(-c4c(C)ccc5[nH]ncc45)c(Cl)cc23)C[C@H]1C [Compound 162, 1-((2R,5S)-4-(6-chloro-8-fluoro-7-(5-methyl-1H-indazol-4-yl)-2-(7-oxa-2-azaspiro[3.5]nonan-2-yl)quinazolin-4-yl)-2,5-dimethyl-piperazin-1-yl) prop-2-en-1-one]	+ (+ indicates binding activity greater than 0% and up to 50%)	–
C=CC(=O)N1C[C@H](C)N(c2nc(N3CC(N(CC)CC)C3)nc3c(F)c(-c4c(O)cccc4F)c(Cl)cc23)C[C@H]1C [Compound 126, 1-((2R,5S)-4-(6-chloro-2-(3-(diethylamino)azetidin-1-yl)-8-fluoro-7-(2-fluoro-6-hydroxyphenyl)quinazolin-4-yl)-2,5-dimethyl-piperazin-1-yl) prop-2-en-1-one]	+++ (+++ indicates binding activity greater than 90%)	–
C=CC(=O)N1C[C@H](C)N(c2nc(N3CC4(CCN(C5CC5)CC4)C3)nc3c(F)c(-c4c(O)cccc4F)c(Cl)cc23)C[C@H]1C [Compound 173, 1-((2R,5S)-4-(6-chloro-2-(7-cyclopropyl-2,7-diazaspiro[3.5]nonan-2-yl)-8-fluoro-7-(2-fluoro-6-hydroxyphenyl)quinazolin-4-yl)-2,5-dimethyl-piperazin-1-yl) prop-2-en-1-one]	++ (++ indicates binding activity from 50 to 90%)	–
C=CC(=O)N1CCN(c2nc(N3CC(C)(N(C)C)C3)nc3c(F)c(-c4c(C)ccc5[nH]ncc45)c(Cl)cc23)C[C@H]1C [Compound 171, 1-((2R)-4-(6-chloro-2-(3-(dimethylamino)-3-methylazetidin-1-yl)-8-fluoro-7-(5-methyl-1H-indazol-4-yl)quinazolin-4-yl)-2-methyl-piperazin-1-yl) prop-2-en-1-one]	++ (++ indicates binding activity from 50 to 90%)	–
C=CC(=O)N1C[C@H](C)N(c2nc(N3CC4(CCN4C)C3)nc3c(F)c(-c4c(C)ccc5[nH]ncc45)c(Cl)cc23)C[C@H]1C [Compound 170, 1-((2R,5S)-4-(6-chloro-8-fluoro-7-(5-methyl-1H-indazol-4-yl)-2-(1-methyl-1,6-diazaspiro[3.3]heptan-6-yl)quinazolin-4-yl)-2,5-dimethyl-piperazin-1-yl) prop-2-en-1-one]	+ (+ indicates binding activity greater than 0% and up to 50%)	–
C[C@@H]1CN(c2nc(N3CC(N(C)C)C3)nc3c(F)c(-c4c(O)cccc4F)c(Cl)cc23)[C@@H](C)CN1C(=O)C1CO1 (stereo partly drawn) [Compound 115, ((2R,5S)-4-(6-chloro-2-(3-(dimethylamino)azetidin-1-yl)-8-fluoro-7-(2-fluoro-6-hydroxyphenyl)quinazolin-4-yl)-2,5-dimethyl-piperazin-1-yl) (oxiran-2-yl) methanone]	–	Binding % (% modification at 10 min (footnote †)): + (+ indicates binding activity greater than 0% and up to 50%)
C=CC(=O)N1C[C@@H](C)N(c2nc(NC3CCN(C4CC4)CC3)nc3c(F)c(-c4c(C)ccc5[nH]ncc45)c(Cl)cc23)[C@@H](C)C1 [Compound 42, 1-((3S,5R)-4-(6-chloro-2-((1-cyclopropyl-piperidin-4-yl)amino)-8-fluoro-7-(5-methyl-1H-indazol-4-yl)quinazolin-4-yl)-3,5-dimethyl-piperazin-1-yl) prop-2-en-1-one]	–	Binding % [2]: ++ (++ indicates binding activity from 50 to 90%)
C=CC(=O)N1C[C@H](C)N(c2nc(N3CC(N(CC)CC)C3)nc3c(F)c(-c4c(C)ccc5[nH]ncc45)c(Cl)cc23)C[C@H]1C (atropisomer, axis not shown) [Compound 152, 1-((2R,5S)-4-(6-chloro-2-(3-(diethylamino)azetidin-1-yl)-8-fluoro-7-((S)-5-methyl-1H-indazol-4-yl)quinazolin-4-yl)-2,5-dimethyl-piperazin-1-yl) prop-2-en-1-one]	+ (+ indicates binding activity greater than 0% and up to 50%)	–
